Source: US11236055B2 (Venenum Biodesign, LLC, priority 2016, dated 2022)

Columns and labels:
human TGR5 receptor = target: T1, human TGR5 receptor (Homo sapiens, UniProt Q8TDU6); experiment: Human TGR5 cAMP production assay; assay type: cell-based; conditions: human TGR5, luminescent cAMP assay; coded A-D; read-out: Human TGR5 Lum. cAMP Activity (EC50)
T1 construct: host or cells: CHO-K1 (hTGR5-CHO cells)
T1 sequence (Q8TDU6 1-330): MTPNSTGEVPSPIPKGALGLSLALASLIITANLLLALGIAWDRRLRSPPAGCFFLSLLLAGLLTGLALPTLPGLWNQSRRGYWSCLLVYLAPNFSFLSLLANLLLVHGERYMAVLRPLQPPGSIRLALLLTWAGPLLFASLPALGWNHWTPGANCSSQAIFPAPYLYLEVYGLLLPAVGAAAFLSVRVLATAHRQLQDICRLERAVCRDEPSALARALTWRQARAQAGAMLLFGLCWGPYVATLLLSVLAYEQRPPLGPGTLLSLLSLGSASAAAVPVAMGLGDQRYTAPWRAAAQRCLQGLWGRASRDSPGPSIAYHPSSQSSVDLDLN
Outline: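 Intracellular cAMP read by luminescent enzyme-complementation (XS+) after overnight development, following 1 h room-temperature compound treatment of hTGR5-CHO-K1 cells in IBMX plus anti-cAMP antibody. Compounds tested as half-log dilution series; EC50 derived.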

mouse TGR5 receptor = target: T2, mouse TGR5 receptor (Mus musculus, UniProt Q80SS6); experiment: Mouse TGR5 cAMP production assay (HTRF, Cisbio cAMP HiRange); assay type: cell-based; conditions: HEK293-EBNA cells overexpressing mouse TGR5, HTRF cAMP HiRange; coded A-D
T2 construct: expressed in transfected cells; host or cells: HEK293-EBNA (293 c18, ATCC CRL10852), Hygromycin B selection
T2 sequence (Q80SS6 1-329): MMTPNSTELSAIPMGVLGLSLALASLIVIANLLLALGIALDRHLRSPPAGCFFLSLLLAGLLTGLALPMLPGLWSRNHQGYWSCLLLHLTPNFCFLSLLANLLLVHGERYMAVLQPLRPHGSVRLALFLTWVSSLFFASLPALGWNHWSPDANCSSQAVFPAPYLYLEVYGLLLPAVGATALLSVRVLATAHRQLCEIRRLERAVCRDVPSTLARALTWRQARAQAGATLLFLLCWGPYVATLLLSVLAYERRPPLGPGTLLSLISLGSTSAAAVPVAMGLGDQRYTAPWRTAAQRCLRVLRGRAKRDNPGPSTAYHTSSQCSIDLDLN
Outline: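 cAMP read by HTRF competition after 1 h room-temperature compound exposure of mouse TGR5-overexpressing HEK293-EBNA cells. Cells were suspended in serum-free DMEM containing 500 μM IBMX; compounds ran as 12-point half-log dilutions in duplicate; EC50 derived.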

SMILES: Cc1c(Cl)cccc1S(=O)(=O)N(CCCC(=O)NCCS(=O)(=O)NCC(=O)O)[C@@H](C)c1cccc(-c2ccncc2CO)c1 [Compound 20BS, (S)-2-(4-(3-chloro-N-(1-(3-(3-(hydroxymethyl)pyridin-4-yl)phenyl)ethyl)-2-methylphenylsulfonamido)butanamido)ethanesulfonamido acetic acid]
- EC50 (human TGR5 receptor): 100 to 999 nM
- EC50 (mouse TGR5 receptor): < 100 nM

SMILES: Cc1cnccc1-c1cccc(CCN(CCCC(=O)NCCS(=O)(=O)O)S(=O)(=O)c2cccc(Cl)c2C)c1 [Compound 20BT, 2-(4-(3-chloro-2-methyl-N-(3-(3-methylpyridin-4-yl)phenethyl)phenylsulfonamido)butanamido)ethanesulfonic acid]
- EC50 (human TGR5 receptor): 100 to 999 nM
- EC50 (mouse TGR5 receptor): 1000 to 30000 nM

SMILES: Cc1cnccc1-c1cccc([C@H](C)N(CCC(=O)NCCS(=O)(=O)O)S(=O)(=O)c2cccc(Cl)c2C)c1 [Compound 20BV, (S)-2-(3-(3-chloro-2-methyl-N-(1-(3-(3-methylpyridin-4-yl)phenyl)ethyl)phenylsulfonamido)propanamido)ethanesulfonic acid]
- EC50 (human TGR5 receptor): 100 to 999 nM
- EC50 (mouse TGR5 receptor): < 100 nM

SMILES: Cc1cnccc1-c1cccc([C@H](C)N(CCCC(=O)NS(=O)(=O)CCC(=O)O)S(=O)(=O)c2cccc(Cl)c2C)c1 [Compound 20BW, (S)-3-(N-(4-(3-chloro-2-methyl-N-(1-(3-(3-methylpyridin-4-yl)phenyl)ethyl)phenylsulfonamido)butanoyl)sulfamoyl)propanoic acid]
- EC50 (human TGR5 receptor): 100 to 999 nM
- EC50 (mouse TGR5 receptor): < 100 nM

SMILES: Cc1cnccc1-c1cccc([C@H](C)N(CCCC(=O)NCCN)S(=O)(=O)c2ccccc2C(F)(F)F)c1 [Compound 20BX]
- EC50 (human TGR5 receptor): < 100 nM
- EC50 (mouse TGR5 receptor): 100 to 999 nM

SMILES: Cc1cnccc1-c1cccc(C(C)(C)N(CCCC(=O)NCCN)S(=O)(=O)c2cccc(Cl)c2C)c1 [Compound 21, N-(2-Aminoethyl)-4-(3-chloro-2-methyl-N-(2-(3-(3-methylpyridin-4-yl)phenyl)propan-2-yl)-phenylsulfonamido)butanamide]
- EC50 (human TGR5 receptor): < 100 nM
- EC50 (mouse TGR5 receptor): 100 to 999 nM

SMILES: Cc1cnccc1-c1cccc(C(C)(C)N(CCCC(=O)N[C@@H](CS(=O)(=O)O)C(=O)O)S(=O)(=O)c2cccc(Cl)c2C)c1 [Compound 21AA, (R)-2-(4-(3-chloro-2-methyl-N-(2-(3-(3-methylpyridin-4-yl)phenyl)propan-2-yl)phenylsulfonamido)butanamido)-3-sulfopropanoic acid]
- EC50 (human TGR5 receptor): 100 to 999 nM
- EC50 (mouse TGR5 receptor): < 100 nM

SMILES: Cc1cnccc1-c1cccc(C(C)(C)N(CCCC(=O)NCCN(C)C)S(=O)(=O)c2cccc(Cl)c2C)c1 [Compound 21AD, 4-(3-chloro-2-methyl-N-(2-(3-(3-methylpyridin-4-yl)phenyl)propan-2-yl)phenylsulfonamido)-N-(2-(dimethyl-amino)ethyl)butanamide]
- EC50 (human TGR5 receptor): < 100 nM
- EC50 (mouse TGR5 receptor): 100 to 999 nM

SMILES: Cc1cnccc1-c1cccc(C(C)(C)N(CCCC(=O)N[C@H](C)C(=O)O)S(=O)(=O)c2cccc(Cl)c2C)c1 [Compound 21AE, (R)-2-(4-(3-chloro-2-methyl-N-(2-(3-(3-methylpyridin-4-yl)phenyl)propan-2-yl)phenylsulfonamido)butanamido)propanoic acid]
- EC50 (human TGR5 receptor): < 100 nM
- EC50 (mouse TGR5 receptor): < 100 nM

SMILES: Cc1cnccc1-c1cccc(C(C)(C)N(CCCC(=O)N[C@@H](C)C(=O)O)S(=O)(=O)c2cccc(Cl)c2C)c1 [Compound 21AF, (S)-2-(4-(3-chloro-2-methyl-N-(2-(3-(3-methylpyridin-4-yl)phenyl)propan-2-yl)phenylsulfonamido)butanamido)propanoic acid]
- EC50 (human TGR5 receptor): < 100 nM
- EC50 (mouse TGR5 receptor): < 100 nM

SMILES: Cc1cnccc1-c1cccc([C@H](C)N(CCCC(=O)NCCC(=O)O)S(=O)(=O)c2cccc(Cl)c2C)c1 [Compound 21AH, (S)-3-(4-(3-chloro-2-methyl-N-(1-(3-(3-methylpyridin-4-yl)phenyl)ethyl)phenylsulfonamido)butanamido)propanoic acid]
- EC50 (human TGR5 receptor): < 100 nM
- EC50 (mouse TGR5 receptor): 100 to 999 nM
